For the series, the target named is HSD17B13. Particulars: ASO, HepaRG.

“And” between values parts separate entries of the source, which are not always exact repeats. Identical values can stand only once. After the bases stand the sugars from the 5' end (letter, count) and the backbone: PS all phosphorothioate, else s phosphorothioate and o phosphodiester by linkage. Methylation of C is not given here. e = 2'-O-(2-methoxyethyl) (MOE); k = constrained ethyl (cEt); d = 2'-deoxy (DNA); m = 2'-O-methyl

For GTTTACAAGTAAGAAC (sugars k3 d10 k3, PS), the target mRNA inhibition (1 µM) came out at 42%.
CAGTAGGCAGTTTCTC (sugars k3 d10 k3, PS): the target mRNA inhibition reads like this: (0.02 µM) 0%; (0.078 µM) 0%; (0.313 µM) 30%; (1 µM) 72% and 50%; (1.25 µM) 55%; (5 µM) 86%.
On to “TAGCTTTTGTCCACCT (sugars k3 d9 k3 e1, PS)”, for which the target mRNA inhibition (1 µM) is 65%.
On the same count and under the same terms, next, CATCCTTGGTGCTGAG (sugars k3 d10 k3, PS): 12%.
Under “1 µM”, ATGTTGACCTCAAATG (sugars k3 d10 k3, PS) gave a target mRNA inhibition of 0%.
On the same count and under the same terms, next, CATAGTGGACTTCATT (sugars k3 d10 k3, PS): 34%; “AATCACAAGTAAGGTA (sugars k3 d9 k3 e1, PS)”: 63%.
The same measure, in the same setting: with CACTATCAGAACAGTT (sugars k3 d10 k3, PS) the figure was 24%.
In the case of “TTAGTCTTGATGTAGT (sugars k3 d9 k3 e1, PS)”, where the note is “1 µM”, the target mRNA inhibition was 61%.
Same read-out and setting: next, CTCCAAGTAGGAGTAG (sugars k3 d10 k3, PS): 5%; AATTCTAAACTAGTGG (sugars k3 d10 k3, PS): 31%; “GTATUCCATCTATCAG (sugars k3 d1 m1 d8 k3, PS)”: 41%.
Still for that read-out and setting: with TTTGCAGCATTGATTC (sugars k3 d10 k3, PS) the figure was 53%; with GACAACCCTTAACAAA (sugars k3 d10 k3, PS), 24%; with TTCACCTGATTTAGAG (sugars k3 d10 k3, PS), 9%.
Same read-out and setting: with ACCCATTCTAACTTGA (sugars k3 d10 k3, PS) the figure was 0%; with CCTTAGGAAAGCTCAT (sugars k3 d10 k3, PS), 29%.
GCCTAAACATTTCTCA (sugars k3 d10 k3, PS): the target mRNA inhibition (1 µM) is 2%.
Take TCCTGTGTTAGCTTTA (sugars k3 d10 k3, PS): the target mRNA inhibition (1 µM) was 56%.
The same measure, in the same setting: next, TTAAGATACCCAGGTT (sugars k3 d10 k3, PS): 37%.
Same read-out and setting: next, AAGTCCAGAATAGAGT (sugars k3 d10 k3, PS): 60%; CCATAATAATAGCTCT (sugars k3 d10 k3, PS): 48%; GAATATATACTAGGAT (sugars k3 d10 k3, PS): 5%.
Same read-out and setting: next, CCCTAAGTTATTATCC (sugars k3 d10 k3, PS): 25%.
With CCTATGAAAAACTACG (sugars k3 d10 k3, PS), the target mRNA inhibition (1 µM) worked out at 36%.
Still for that read-out and setting: next, AGTAGATTTGGTAGAG (sugars k3 d10 k3, PS): 67%.
On the same count and under the same terms, with TAGTGGACTTCATTAG (sugars k3 d10 k3, PS) the figure was 52%; with “TGTGGCATGGCTACAG (sugars k3 d1 m1 d8 k3, PS)”, 5%.
On the same count and under the same terms, with AATCATGGTGTGGAGG (sugars k3 d10 k3, PS) the figure was 11%.
Turning to CTGTGAGAGGATAGTG (sugars k3 d10 k3, PS), the target mRNA inhibition (1 µM) turned out to be 33%.
Still for that read-out and setting: next, TTTCACCTCAGGTGAC (sugars k3 d10 k3, PS): 52%; CAATGGTTGATAGTTT (sugars k3 d10 k3, PS): 47%; GATTTAAAATAGAGTC (sugars k3 d10 k3, PS): 46%.
Sequence CTTTAGCTTAAACTCC (sugars k3 d10 k3, PS) returned a target mRNA inhibition (1 µM) of 69%.
The same measure, in the same setting: next, TCAGTCCTTGTGTAGT (sugars k3 d10 k3, PS): 72%.
Same read-out and setting: with “ATGAAGTTAGTATAGT (sugars k3 d9 k3 e1, PS)” the figure was 61%.
Take CAAGACAGACTGTTGA (sugars k3 d10 k3, PS): the target mRNA inhibition (1 µM) worked out at 39%.
Same read-out and setting: next, “ACATCTCTGGGACCAA (sugars k3 d9 k3 e1, PS)”: 65%; CTATATAAATTCTGAC (sugars k3 d10 k3, PS): 0%; AAGGAGCTAGATACTC (sugars k3 d10 k3, PS): 19%.
Same read-out and setting: with “AATAGCCAGTACAGTT (sugars kkdddddddddkekek, PS)” the figure was 36%; with CGAATTTCTTCAAAGA (sugars k3 d10 k3, PS), 55%.
Consider AAAAATCGCTGCTTAG (sugars k3 d10 k3, PS), for which the target mRNA inhibition (1 µM) worked out at 25%.
On the same count and under the same terms, with TTAGCTGTGCACTCAT (sugars k3 d10 k3, PS) the figure was 61%; with TCACTATATTGCATTC (sugars k3 d10 k3, PS), 35%.
AACCAATATGCTCTGT (sugars k3 d10 k3, PS) returned a target mRNA inhibition (1 µM) of 51%.
Turning to GGACAAATGCCTGAGA (sugars k3 d10 k3, PS), the target mRNA inhibition (1 µM) was 52%.
The same measure, in the same setting: next, TGATTGAGTTCTCCAC (sugars k3 d10 k3, PS): 48%; CCTTATACTGAAGGCT (sugars k3 d10 k3, PS): 41%.
Same read-out and setting: with CTCCTTATGTTATCTC (sugars k3 d10 k3, PS) the figure was 57%.
Same read-out and setting: next, GAGGTTTTGATACCAG (sugars k3 d10 k3, PS): 59%; AGTGAAATCTTGTGTA (sugars k3 d10 k3, PS): 41%.
Turning to GATTATTATGTGATTG (sugars k3 d10 k3, PS), the target mRNA inhibition (1 µM) amounted to 39%.
The same measure, in the same setting: next, “TTAAAATAGAGTCGGT (sugars k3 d1 m1 d8 k3, PS)”: 70%; GCCACTGTGACGATGT (sugars k3 d10 k3, PS): 9%.
In the case of GTTGTTAATGTAGTGT (sugars k3 d10 k3, PS), the target mRNA inhibition is, setting by setting: (0.02 µM) 0%; (0.078 µM) 18%; (0.313 µM) 42%; (1 µM) 77%; (1.25 µM) 67%; (5 µM) 90%.
Where the note is “1 µM”, TGGCATGGCTACAGAT (sugars k3 d10 k3, PS) displayed a target mRNA inhibition of 57%.
Same read-out and setting: with “ATCTTATAAGACTATA (sugars k3 d9 k3 e1, PS)” the figure was 53%; with “GACATGAGGTTTTGAT (sugars k3 d9 k3 e1, PS)”, 55%; with “GTTAGAATAGTCTTCA (sugars k3 d1 m1 d8 k3, PS)”, 42%.
With TCTTAAGAGAAGGTGC (sugars k3 d10 k3, PS), the target mRNA inhibition (1 µM) is 39%.
Still for that read-out and setting: with CCTGCCTATTCCATGC (sugars k3 d10 k3, PS) the figure was 24%.
On the same count and under the same terms, with TAATATTGAGGCACTG (sugars k3 d10 k3, PS) the figure was 33%; with GCCTTACCAGAATTTA (sugars k3 d10 k3, PS), 75%; with TTTCATGGCCTTACCA (sugars k3 d10 k3, PS), 52%.
Still for that read-out and setting: next, GTCCACTTTTGGTGGA (sugars k3 d10 k3, PS): 14%.
Turning to TGATAAAATAGGGTGC (sugars k3 d10 k3, PS), the target mRNA inhibition (1 µM) was 44%.
Still for that read-out and setting: with GGTCCATTGTTTCTTA (sugars k3 d10 k3, PS) the figure was 36%; with CGACTCCAAGTAGGAG (sugars k3 d10 k3, PS), 10%.
As for TCTCTTGACAATGGTT (sugars k3 d10 k3, PS), the target mRNA inhibition is, setting by setting: (0.02 µM) 2%; (0.078 µM) 14%; (0.313 µM) 44%; (1 µM) 70%; (1.25 µM) 86%; (5 µM) 86%.
AAGTAAGGTAAAGTCT (sugars k3 d10 k3, PS) yielded a target mRNA inhibition (1 µM) of 20%.
Still for that read-out and setting: with CTTGATCTCTTAGCTG (sugars k3 d10 k3, PS) the figure was 51%.
The same measure, in the same setting: with “TAGCTGTGCACTCATT (sugars kkdddddddddkekek, PS)” the figure was 53%; with TGAAATCTTGTGTAAC (sugars k3 d10 k3, PS), 43%.
For the setting “1 µM”, TGTAATAGCCAGTACA (sugars k3 d10 k3, PS) returned a target mRNA inhibition of 46%.
On the same count and under the same terms, with ATTAAGATGTCCAGGC (sugars k3 d10 k3, PS) the figure was 31%.
Still for that read-out and setting: with TCTGGGACCAAGGATA (sugars k3 d10 k3, PS) the figure was 30%.
The sequence AACTAACCTGACACAT (sugars k3 d10 k3, PS) gave a target mRNA inhibition (1 µM) of 20%.
The same measure, in the same setting: with TAATGGTAAACTGTAT (sugars k3 d10 k3, PS) the figure was 32%; with TAGGAACATTCCCTCT (sugars k3 d10 k3, PS), 24%; with TTAAGTACTGTGAGAC (sugars k3 d10 k3, PS), 35%.
As for TGCTAGTGCCAAACCA (sugars k3 d10 k3, PS), the target mRNA inhibition by setting is: (0.02 µM) 3%; (0.078 µM) 9%; (0.313 µM) 49%; (1 µM) 78%; (1.25 µM) 58%; (5 µM) 89%.
For the setting “1 µM”, AGTTAATAGGACTAAA (sugars k3 d10 k3, PS) registered a target mRNA inhibition of 13%.
ATATACATCCAAGTAA (sugars k3 d10 k3, PS) came in with a target mRNA inhibition (1 µM) of 18%.
On the same count and under the same terms, next, ATCCCGTTCTTGCCCA (sugars k3 d10 k3, PS): 30%.
Turning to TTAATGCCACCCTACC (sugars k3 d10 k3, PS), the target mRNA inhibition (1 µM) stood at 19%.
TAATTTTTGAGCCTAA (sugars k3 d10 k3, PS) displayed a target mRNA inhibition (1 µM) of 41%.
Same read-out and setting: with TTGAAGACAATACAGG (sugars k3 d10 k3, PS) the figure was 63%.

Values taken from the OligoGym collection.
